From US20020111274A1, “1-alkyl-3-[1-(substituted phenyl) benzotriazol-6-yl] uracils” (BASF Aktiengesellschaft, priority 2000, published 2002)

Tests used:
Design in all cases: scale not given here
[1] = test system: ZEAMX Corn, Field; test: Postemergence herbicidal evaluation, ZEAMX; assay type: in vivo, Zea mays, L. (Sammel-Bezeichnung); conditions: postemergence spray, rated about two-three weeks after treatment
Description: (§1) In this evaluation, seedling plants are grown in jiffy flats for about two weeks. The test compounds are dispersed in 80/20 acetone/water mixtures containing 1.0% SUN-IT® II, a methylated seed oil, in sufficient quantities to provide the equivalent of about 0.006 kg to 0.400 kg per hectare of active compound when applied to the plants through a spray nozzle operating at 40 psi for a predetermined time. After spraying, the plants are placed on greenhouse benches and are cared for in accordance with conventional greenhouse procedures. Approximately two - three weeks after treatment, the seedling plants are examined and rated according to the rating system set forth below. Where more than one test is involved for a given compound, the data are averaged.

[2] = test system: CHEAL Lambsquarters, Common; test: Postemergence herbicidal evaluation, CHEAL; assay type: in vivo, Chenopodium album, L.; conditions: postemergence spray, rated about two-three weeks after treatment
Description: as §1

[3] = test system: IPOHE Morningglory, Ivyleaf; test: Postemergence herbicidal evaluation, IPOHE; assay type: in vivo, Ipomoea hederacea, (L.) Jacq.; conditions: postemergence spray, rated about two-three weeks after treatment
Description: as §1

[4] = test system: ABUTH Velvetleaf; test: Postemergence herbicidal evaluation, ABUTH; assay type: in vivo, Abutilon theophrasti, Medic.; conditions: postemergence spray, rated about two-three weeks after treatment
Description: as §1

[5] = test system: ORYSAT Rice, Tebonnet; test: Preemergence herbicidal evaluation, ORYSAT; assay type: in vivo, Oryza sativa, (L.); conditions: preemergence
Excerpt: (§2) The preemergence herbicidal activity of the test compounds of the present invention is exemplified by the following tests in which the seeds of a variety of monocotyledonous and dicotyledonous plants are separately mixed with potting soil and planted on top of approximately one inch of soil in separate pint cups. […] The treated cups are then placed on greenhouse benches, watered and cared for in accordance with conventional greenhouse procedures. From four to five weeks after treatment, the tests are terminated and each cup is examined and rated according to the rating system provided in Example 46.

[6] = test system: AMBEL Ragweed, Common; test: Preemergence herbicidal evaluation, AMBEL; assay type: in vivo, Ambrosia artemisifolia, L.; conditions: preemergence
Excerpt: as §2

[7] = test system: IPOHE Morningglory, Ivyleaf; test: Preemergence herbicidal evaluation, IPOHE; assay type: in vivo, Ipomoea hederacea, (L.) Jacq.; conditions: preemergence
Excerpt: as §2

[8] = test system: SETVI Foxtail, Green; test: Postemergence herbicidal evaluation, SETVI; assay type: in vivo, Setaria viridis, (L.) Beau; conditions: postemergence spray, rated about two-three weeks after treatment
Description: as §1

[9] = test system: AMBEL Ragweed, Common; test: Postemergence herbicidal evaluation, AMBEL; assay type: in vivo, Ambrosia artemisifolia, L.; conditions: postemergence spray, rated about two-three weeks after treatment
Description: as §1

[10] = test system: GALAP Galium; test: Postemergence herbicidal evaluation, GALAP; assay type: in vivo, Galium aparine; conditions: postemergence spray, rated about two-three weeks after treatment
Description: as §1

[11] = test system: GLXMAW Soybean, Williams; test: Preemergence herbicidal evaluation, GLXMAW; assay type: in vivo, Glycine max, (L.) Merr. cv Williams; conditions: preemergence
Excerpt: as §2

[12] = test system: CASOB Sicklepod; test: Postemergence herbicidal evaluation, CASOB; assay type: in vivo, Cassia obtusifolia, L.; conditions: postemergence spray, rated about two-three weeks after treatment
Description: as §1

**Q.** For `C#CCOC(=O)COc1ccc(C)cc1-n1nnc2cc(F)c(-n3c(=O)cc(C(F)(F)F)n(C)c3=O)cc21` [Example 40], which “Postemergence herbicidal rating ZEAMX” value ([1]; 0.008 kg/ha) is on record?
**A.** The value was 5.0.

**Q.** And the “Postemergence herbicidal rating ZEAMX” value ([1]; 0.016 kg/ha)?
**A.** The value was 7.5.

**Q.** What about the “Postemergence herbicidal rating ZEAMX” value ([1]; 0.032 kg/ha) of the same compound?
**A.** The value was 7.5.

**Q.** And the “Postemergence herbicidal rating ZEAMX” value ([1]; 0.062 kg/ha)?
**A.** The value was 8.5.

**Q.** What about the “Postemergence herbicidal rating CHEAL” value ([2]; 0.008 kg/ha) of the same compound?
**A.** Its value is 4.0.

**Q.** And the “Postemergence herbicidal rating CHEAL” value ([2]; 0.016 kg/ha)?
**A.** The value was 3.0.

**Q.** And the “Postemergence herbicidal rating CHEAL” value ([2]; 0.032 kg/ha)?
**A.** Its value is 7.0.

**Q.** What about the “Postemergence herbicidal rating CHEAL” value ([2]; 0.062 kg/ha) of the same compound?
**A.** The value was 9.0.

**Q.** What about the “Postemergence herbicidal rating IPOHE” value ([3]; 0.008 kg/ha) of the same compound?
**A.** The value was 9.0.

**Q.** What about the “Postemergence herbicidal rating IPOHE” value ([3]; 0.016 kg/ha) of the same compound?
**A.** The value was 9.0.

**Q.** What about the “Postemergence herbicidal rating IPOHE” value ([3]; 0.032 kg/ha) of the same compound?
**A.** The value was 9.0.

**Q.** What about the “Postemergence herbicidal rating IPOHE” value ([3]; 0.062 kg/ha) of the same compound?
**A.** Its value is 9.0.

**Q.** And the “Postemergence herbicidal rating ABUTH” value ([4]; 0.008 kg/ha)?
**A.** Its value is 9.0.

**Q.** And the “Postemergence herbicidal rating ABUTH” value ([4]; 0.016 kg/ha)?
**A.** Its value is 9.0.

**Q.** And the “Postemergence herbicidal rating ABUTH” value ([4]; 0.032 kg/ha)?
**A.** Its value is 9.0.

**Q.** And the “Postemergence herbicidal rating ABUTH” value ([4]; 0.062 kg/ha)?
**A.** Its value is 9.0.

**Q.** And the ORYSAT herbicidal rating ([5]; rate 0.016 kg/ha)?
**A.** Its ORYSAT herbicidal rating is 0.0.

**Q.** And the ORYSAT herbicidal rating ([5]; rate 0.032 kg/ha)?
**A.** Its ORYSAT herbicidal rating is 0.0.

**Q.** And the ORYSAT herbicidal rating ([5]; rate 0.062 kg/ha)?
**A.** Its ORYSAT herbicidal rating is 0.0.

**Q.** And the ORYSAT herbicidal rating ([5]; rate 0.125 kg/ha)?
**A.** Its ORYSAT herbicidal rating is 2.0.

**Q.** What about the AMBEL herbicidal rating ([6]; rate 0.016 kg/ha) of the same compound?
**A.** Its AMBEL herbicidal rating is 0.0.

**Q.** And the AMBEL herbicidal rating ([6]; rate 0.032 kg/ha)?
**A.** The AMBEL herbicidal rating was 4.0.

**Q.** And the AMBEL herbicidal rating ([6]; rate 0.062 kg/ha)?
**A.** The AMBEL herbicidal rating was 3.0.

**Q.** And the AMBEL herbicidal rating ([6]; rate 0.125 kg/ha)?
**A.** The AMBEL herbicidal rating was 4.0.

**Q.** And the IPOHE herbicidal rating ([7]; rate 0.016 kg/ha)?
**A.** The IPOHE herbicidal rating was 0.0.

**Q.** And the IPOHE herbicidal rating ([7]; rate 0.032 kg/ha)?
**A.** Its IPOHE herbicidal rating is 1.0.

**Q.** And the IPOHE herbicidal rating ([7]; rate 0.062 kg/ha)?
**A.** Its IPOHE herbicidal rating is 3.0.

**Q.** What about the IPOHE herbicidal rating ([7]; rate 0.125 kg/ha) of the same compound?
**A.** The IPOHE herbicidal rating was 9.0.

**Q.** What about the “Postemergence herbicidal rating SETVI” value ([8]; 0.008 kg/ha) of the same compound?
**A.** Its value is 6.0.

**Q.** What about the “Postemergence herbicidal rating SETVI” value ([8]; 0.016 kg/ha) of the same compound?
**A.** Its value is 9.0.

**Q.** And the “Postemergence herbicidal rating SETVI” value ([8]; 0.032 kg/ha)?
**A.** Its value is 9.0.

**Q.** And the “Postemergence herbicidal rating SETVI” value ([8]; 0.062 kg/ha)?
**A.** Its value is 9.0.

**Q.** What about the “Postemergence herbicidal rating AMBEL” value ([9]; 0.008 kg/ha) of the same compound?
**A.** Its value is 9.0.

**Q.** What about the “Postemergence herbicidal rating AMBEL” value ([9]; 0.016 kg/ha) of the same compound?
**A.** The value was 7.0.

**Q.** What about the “Postemergence herbicidal rating AMBEL” value ([9]; 0.032 kg/ha) of the same compound?
**A.** The value was 9.0.

**Q.** What about the “Postemergence herbicidal rating AMBEL” value ([9]; 0.062 kg/ha) of the same compound?
**A.** Its value is 7.0.

**Q.** What about the “Postemergence herbicidal rating GALAP” value ([10]; 0.008 kg/ha) of the same compound?
**A.** Its value is 1.0.

**Q.** What about the “Postemergence herbicidal rating GALAP” value ([10]; 0.016 kg/ha) of the same compound?
**A.** Its value is 2.0.

**Q.** What about the “Postemergence herbicidal rating GALAP” value ([10]; 0.032 kg/ha) of the same compound?
**A.** Its value is 2.0.

**Q.** And the “Postemergence herbicidal rating GALAP” value ([10]; 0.062 kg/ha)?
**A.** Its value is 5.0.

**Q.** And the GLXMAW herbicidal rating ([11]; rate 0.016 kg/ha)?
**A.** The GLXMAW herbicidal rating was 0.0.

**Q.** What about the GLXMAW herbicidal rating ([11]; rate 0.032 kg/ha) of the same compound?
**A.** Its GLXMAW herbicidal rating is 0.0.

**Q.** And the GLXMAW herbicidal rating ([11]; rate 0.062 kg/ha)?
**A.** Its GLXMAW herbicidal rating is 1.0.

**Q.** And the GLXMAW herbicidal rating ([11]; rate 0.125 kg/ha)?
**A.** The GLXMAW herbicidal rating was 0.0.

**Q.** And the “Postemergence herbicidal rating CASOB” value ([12]; 0.008 kg/ha)?
**A.** Its value is 1.0.

**Q.** And the “Postemergence herbicidal rating CASOB” value ([12]; 0.016 kg/ha)?
**A.** The value was 1.0.

**Q.** What about the “Postemergence herbicidal rating CASOB” value ([12]; 0.032 kg/ha) of the same compound?
**A.** Its value is 3.0.
